In article PMC11011439, “Influence of Molecular Design on the Tumor Targeting and Biodistribution of PSMA-Binding Tracers Labeled with Technetium-99m” (International Journal of Molecular Sciences, 2024):
Marks after values point to notes of the source that are not given here.

What was measured:
[1] = Stability of the [99mTc]Tc-maG3 complex in PBS and under cysteine challenge (radio-HPLC); type: physicochemical
Procedure: The iTLC data were cross-validated using radio-HPLC analysis, performed using a Hitachi Chromaster HPLC system with a radioactivity detector and Phenomenex Luna® C18 column (100 Å; 150 × 4.6 mm; 5 µm) at room temperature (20 °C), in the following conditions: solvent A: 0.1% trifluoroacetic acid (TFA) in H2O, solvent B: 0.1% TFA in acetonitrile, flow rate: 1 mL/min. For identity and purity analysis of [^99mTc]Tc-BQ0411 and [^99mTc]Tc-BQ0412, the method with a gradient from 5 to 60% solvent B over 20 min was used.
To evaluate the chemical stability of the [^99mTc]Tc-maG3 complex, fractions of radiolabeled conjugates (10 µL, 0.25 µg) were incubated with a 300× molar excess of cysteine or with PBS at room temperature for 1 h. The test was run in triplicate.

[2] = Biodistribution in NMRI mice; type: in vivo; settings: for activity in carcass / activity in intestines with content / uptake in blood / uptake in kidney / uptake in liver / uptake in lung / uptake in salivary glands / uptake in spleen / uptake in stomach: 40 pmol/mouse iv
Procedure: Four NMRI mice were intravenously injected with 40 pmol of the radiotracer (60 kBq, the mass of the injected compound was adjusted with an unlabeled tracer). The mice were euthanized with a lethal intraperitoneal injection of ketamine/xylazine, followed by exsanguination at 3 and 24 h post-injection (pi). The organs of interest were collected, weighed, and measured for their activity content using a gamma counter. The uptake activity in organs was calculated as the percentage of injected activity per gram (%IA/g) for the blood, salivary glands, lungs, liver, spleen, stomach, and kidneys and as %IA for the remaining carcass and the rest of the intestines with content.

[3] = Octanol/water distribution coefficient (LogD); type: physicochemical; settings: n-octanol / Milli-Q water
Procedure: The LogD was determined experimentally based on the procedure described earlier. Briefly, the radiolabeled compound of interest was added to a LoBind Eppendorf tube (Eppendorf, Hamburg, Germany) containing Milli-Q water (500 μL) and n-octanol (500 μL), and the mixture was vortexed and centrifuged. Thereafter, three fractions from each phase were collected and the activity was measured using a gamma counter. The LogD was calculated by dividing the average activity measured in octanol by the average activity measured in water.

PSMA [4] = biological target: T1, PSMA (Homo sapiens, UniProt Q04609); assay: In vitro binding specificity (saturation with non-labeled PSMA-11) on PC3-pip cells; settings: 2 nM tracer, 250-fold molar excess of PSMA-11, 1 h, 37 °C
T1 construct: expressed in transfected cells; host or cells: PC3-pip cells (from Prof. Martin G. Pomper, Johns Hopkins University)
Procedure: For the in vitro binding specificity test, approximately 8 × 10^5 of PC3-pip cells per well were seeded in 6-well plates 24 h before the experiment. Cells in three control wells were pre-saturated with a 250-fold excess of non-labeled PSMA-11 15 min before the addition of radiotracers, while the second set was treated with complete media. After 15 min of incubation at room temperature, [^99mTc]Tc-labeled radioligands were added to all wells to reach a concentration of 2 nM. After one hour of incubation at 37 °C, the cells were washed with PBS solution, detached, and collected. Cell-associated activity was measured using a gamma counter and presented as the percentage of added activity.

PSMA [5] = biological target: T1, PSMA; assay: Real-time binding kinetics on living PC3-pip cells (LigandTracer Yellow); settings: 5 nM tracer, 1:2 interaction model
Procedure: The binding kinetics of [^99mTc]Tc-labeled BQ0411, BQ0412, and BQ0413 were measured in real time using LigandTracer Yellow Instruments (Ridgeview Instruments AB, Uppsala, Sweden) on PC3-pip cells, as described earlier. The activity binding was recorded at 5 nM on the radiolabeled tracers for 150 min. After measuring the binding kinetics, the medium containing the labeled tracer was replaced with fresh medium, and the dissociation was monitored over 7 h. […]

[6] = test system: PSMA-expressing prostate cancer xenografts (PC3-pip); assay: Biodistribution and tumor targeting in PC3-pip tumor-bearing mice; type: in vivo, BALB/c nu/nu mice; settings: 3 h pi
Procedure: PSMA-expressing prostate cancer xenografts were implanted in BALB/c nu/nu mice by subcutaneous injection of PC3-pip cell suspension in PBS (10^7 cells/animal in 100 µL). The average tumor weight was 0.3 ± 0.2 g at the time of the experiment. Four mice per data point were used. Mice were intravenously injected with 5 nmol of the radiotracer (60 kBq, the mass of the injected compound was adjusted with an unlabeled tracer). The mice were euthanized 3 h pi, and the samples were treated as described above.

PC3-pip cells = assay: Cellular processing (internalization) during continuous incubation; type: cell-based; settings: 2 nM, 37 °C
Procedure: To evaluate the cellular processing of [^99mTc]Tc-labeled BQ0411 and BQ0412, PC3-pip cells were incubated with the radiolabeled tracer (2 nM), and at predetermined time points (1, 2, 4, and 8 h), cells were treated with 0.5 mL of 4 M urea solution in a 0.2 M glycine buffer, pH 2.5, for 5 min on ice. After that, the acidic supernatant was collected, and this fraction was considered to be the membrane-bound activity. To lyse the cells, 0.5 mL of 1 M sodium hydroxide solution was added and incubated at 37 °C for at least 20 min. The alkaline-containing solution was collected, and the basic fraction was considered to be the internalized activity.

T1 sequence (Q04609 whole entry): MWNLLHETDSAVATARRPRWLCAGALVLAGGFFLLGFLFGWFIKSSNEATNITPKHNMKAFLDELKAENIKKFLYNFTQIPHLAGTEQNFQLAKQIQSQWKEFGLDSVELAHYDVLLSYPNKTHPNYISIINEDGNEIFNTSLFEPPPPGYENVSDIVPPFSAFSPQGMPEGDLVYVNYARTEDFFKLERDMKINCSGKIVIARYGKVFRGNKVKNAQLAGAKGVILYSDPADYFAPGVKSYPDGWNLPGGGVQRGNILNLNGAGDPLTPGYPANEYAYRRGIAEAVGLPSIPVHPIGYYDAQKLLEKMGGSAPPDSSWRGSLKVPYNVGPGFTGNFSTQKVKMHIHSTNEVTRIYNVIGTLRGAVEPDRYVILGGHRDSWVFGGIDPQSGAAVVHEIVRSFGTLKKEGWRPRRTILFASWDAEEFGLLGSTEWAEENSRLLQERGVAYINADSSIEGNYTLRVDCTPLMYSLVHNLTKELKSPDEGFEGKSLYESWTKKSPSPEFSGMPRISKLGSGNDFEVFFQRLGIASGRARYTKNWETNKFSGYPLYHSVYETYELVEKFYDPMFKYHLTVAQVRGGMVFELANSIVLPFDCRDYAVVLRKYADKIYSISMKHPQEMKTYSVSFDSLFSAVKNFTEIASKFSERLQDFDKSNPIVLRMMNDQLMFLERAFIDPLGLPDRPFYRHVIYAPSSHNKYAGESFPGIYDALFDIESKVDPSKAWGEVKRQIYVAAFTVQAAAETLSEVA

CC(=O)N[C@@H](CCCCNC(=O)C[N]1C(=O)C[N]2C(=O)C[N]3C(=O)C[S][99Tc-]132=[O])C(=O)NCCCCCCCC(=O)N[C@@H](Cc1ccc(O)cc1)C(=O)N[C@@H](Cc1ccc2ccccc2c1)C(=O)NCCCC[C@H](NC(=O)N[C@@H](CCC(=O)O)C(=O)O)C(=O)O [[^99mTc]Tc-BQ0412]
release of activity under cysteine challenge ([1]; 300-fold molar excess of cysteine, room temperature, 1 h): around 60%
stability during incubation in PBS ([1]; PBS, room temperature, 1 h): stable
share of activity in radio-HPLC peak, retention time 6.2 min ([1]; cysteine challenge, radiolabeled product, speculated Tc–cysteine complex): 32.5%
share of activity in radio-HPLC peak, retention time 14.1 min ([1]; cysteine challenge, radiolabeled product, speculated intermediate transchelation product): 25.5%
activity in carcass ([2]; 3 h pi): 2.9 ± 0.1 *^,c %IA/sample
activity in intestines with content ([2]; 3 h pi): 70 ± 7 *^,c %IA/sample
uptake in blood ([2]; 3 h pi): 0.5 ± 0.1 %IA/g
uptake in kidney ([2]; 3 h pi): 56 ± 9 *^,c %IA/g
uptake in liver ([2]; 3 h pi): 3 ± 1 *^,c %IA/g
uptake in lung ([2]; 3 h pi): 0.3 ± 0.1 *^,c %IA/g
uptake in salivary glands ([2]; 3 h pi): 0.24 ± 0.03 *^,c %IA/g
uptake in spleen ([2]; 3 h pi): 0.23 ± 0.07 *^,c %IA/g
uptake in stomach ([2]; 3 h pi): 0.17 ± 0.03 *^,c %IA/g
activity in carcass ([2]; 24 h pi): 0.12 ± 0.03 ^c %IA/sample
activity in intestines with content ([2]; 24 h pi): 0.16 ± 0.04 ^c %IA/sample
uptake in blood ([2]; 24 h pi): 0.016 ± 0.002 ^c %IA/g
uptake in kidney ([2]; 24 h pi): 1.1 ± 0.3 ^c %IA/g
uptake in liver ([2]; 24 h pi): 0.016 ± 0.004 ^c %IA/g
uptake in lung ([2]; 24 h pi): 0.014 ± 0.008 ^c %IA/g
uptake in salivary glands ([2]; 24 h pi): 0.015 ± 0.006 ^c %IA/g
uptake in spleen ([2]; 24 h pi): 0.007 ± 0.005 %IA/g
uptake in stomach ([2]; 24 h pi): 0.07 ± 0.05 ^c %IA/g
uptake in intestines with content, fold higher than [99mTc]Tc-BQ0411 ([2]; 3 h pi): 1.6 fold
uptake in kidneys, fold lower than [99mTc]Tc-BQ0411 ([2]; 3 h pi): 2.3 fold
activity remaining in the body ([2]; 3 h pi, excluding activity in the intestines with content): 20–30 % from injected
washout of activity from kidneys ([2]; 24 h pi compared to 3 h pi): 98%
logD (octanol–water distribution coefficient) [3]: −2.3 ± 0.1
binding to PC3-pip cells after pre-treatment with excess non-labeled PSMA-11 (PSMA [4]): significantly (p ˂ 0.0001) decreased
ka1 (PSMA [5]): 31000 M⁻¹ s⁻¹
ka2 (PSMA [5]): 46000 M⁻¹ s⁻¹
kd1 (PSMA [5]): 1.4e-05 s⁻¹
kd2 (PSMA [5]): 1.6e-05 s⁻¹
activity in carcass ([6]; 5 nmol/mouse iv): 2.6 ± 1.3 %IA/sample
activity in intestines with content ([6]; 5 nmol/mouse iv): 69 ± 17 ^c %IA/sample
uptake in blood ([6]; 5 nmol/mouse iv): 0.5 ± 0.1 %IA/g
uptake in bone ([6]; 5 nmol/mouse iv): 0.15 ± 0.07 %IA/g
uptake in kidney ([6]; 5 nmol/mouse iv): 16 ± 5 %IA/g
uptake in liver ([6]; 5 nmol/mouse iv): 0.5 ± 0.1 %IA/g
uptake in lung ([6]; 5 nmol/mouse iv): 0.5 ± 0.1 %IA/g
uptake in muscle ([6]; 5 nmol/mouse iv): 0.2 ± 0.1 %IA/g
uptake in pancreas ([6]; 5 nmol/mouse iv): 0.4 ± 0.3 %IA/g
uptake in salivary glands ([6]; 5 nmol/mouse iv): 0.2 ± 0.1 ^c %IA/g
uptake in small intestine ([6]; 5 nmol/mouse iv): 1.2 ± 0.7 ^c %IA/g
uptake in spleen ([6]; 5 nmol/mouse iv): 0.6 ± 0.3 %IA/g
uptake in stomach ([6]; 5 nmol/mouse iv): 0.3 ± 0.2 %IA/g
uptake in tumor ([6]; 5 nmol/mouse iv): 17 ± 5 %IA/g
tumor-to-blood ratio ([6]; 5 nmol/mouse): 35 ± 4 ^c
tumor-to-bone ratio ([6]; 5 nmol/mouse): 128 ± 38
tumor-to-kidney ratio ([6]; 5 nmol/mouse): 1.1 ± 0.1
tumor-to-liver ratio ([6]; 5 nmol/mouse): 35 ± 5 ^c
tumor-to-lung ratio ([6]; 5 nmol/mouse): 39 ± 6
tumor-to-muscle ratio ([6]; 5 nmol/mouse): 143 ± 58 ^c
tumor-to-pancreas ratio ([6]; 5 nmol/mouse): 82 ± 33
tumor-to-salivary ratio ([6]; 5 nmol/mouse): 90 ± 16 ^c
tumor-to-small intestine ratio ([6]; 5 nmol/mouse): 19 ± 9 ^c
tumor-to-spleen ratio ([6]; 5 nmol/mouse): 26 ± 6
tumor-to-stomach ratio ([6]; 5 nmol/mouse): 77 ± 29
activity uptake in the gastrointestinal tract (with content) [6]: over 40 %IA
internalized activity (of cell-associated activity) (PC3-pip cells; 4 h of continuous incubation): 43 ± 1%
internalized activity (of cell-associated activity) (PC3-pip cells; after 4 h (8 h of continuous incubation)): 32 ± 1%
